Several values for one entry are separate records, joined by “and”; a condition that tells them apart may be missing. Equal values may be shown once. Entries after “also recorded” stand apart in the source; their conditions may differ.
How the values were obtained:
[1] = target: T1, recombinant microsomal CYP3A4 (Homo sapiens, UniProt P08684); experiment: In vitro CYP450 activity assay (Vivid CYP450 Blue screening kit, BOMCC); assay type: in vitro ADME; conditions: recombinant CYP3A4, 100 nM treatment for 10 min, mean ± SEM
T1 construct: purchased Invitrogen P2858; host or cells: BACULOSOMES (microsomes of baculovirus-infected insect cells: own knowledge of the product)
T1 sequence (P08684 whole entry): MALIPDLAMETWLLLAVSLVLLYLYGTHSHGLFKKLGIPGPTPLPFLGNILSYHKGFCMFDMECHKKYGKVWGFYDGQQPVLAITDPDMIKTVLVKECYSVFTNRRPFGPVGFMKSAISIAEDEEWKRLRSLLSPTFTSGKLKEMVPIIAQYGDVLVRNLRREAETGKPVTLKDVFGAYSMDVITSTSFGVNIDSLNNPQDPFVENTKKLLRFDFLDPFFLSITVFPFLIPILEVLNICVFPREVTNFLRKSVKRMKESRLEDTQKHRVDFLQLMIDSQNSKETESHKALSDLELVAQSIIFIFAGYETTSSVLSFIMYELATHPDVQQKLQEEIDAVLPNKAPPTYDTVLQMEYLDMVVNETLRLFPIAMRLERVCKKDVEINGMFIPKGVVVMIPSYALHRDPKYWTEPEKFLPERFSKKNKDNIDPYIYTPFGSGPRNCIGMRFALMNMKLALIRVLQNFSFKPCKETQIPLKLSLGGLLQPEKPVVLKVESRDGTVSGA
Protocol: The activity of CYP3A4 was measured using the Vivid® CYP450 Blue screening kit (Cat No. P2858 for 3A4, Invitrogen). […] The system consisted of 100 μL of the final volume. The CYP450 substrate Vivid BOMCC and positive control inhibitor (ketoconazole), were dissolved in acetonitrile. […] The mixture containing test drugs, Vivid® CYP450 BACULOSOMES reagent, and Vivid® Regeneration system (Total 90 μL) was dispensed into a 96-well black plate and incubated at room temperature for 20 min. After adding 10 μL of Vivid® CYP450 reaction buffer (100 μM NADP, 10 μM Vivid® BOMCC), the mixture was incubated for 10 min at room temperature. […] The CYP450 3A4 inhibitory efficiency (%) of the test drug was calculated by comparing the reaction rates of the test compounds with the reaction rate of the positive control group (Ketoconazole) and the negative control group (0.1% Acetonitrile, 0.1% DMSO) using the measured fluorescence values.

purified CYP3A4 = purified CYP3A4 (Homo sapiens, UniProt P08684); experiment: Spectral binding titration of purified CYP3A4; conditions: 1 µM purified CYP3A4, pH 7.4, no binding = no spectral change up to 200 μM; for Kd: read-out: CYP3A4 Kd (spectral dissociation constant)
Sequence of purified CYP3A4 (P08684 whole entry): as above
Protocol: Purified CYP3A4 enzymes were diluted to 1 µM in 100 mM potassium phosphate buffer (pH 7.4) and then divided into two glass cuvettes. […] The binding titration was analysed using GraphPad Prism software (GraphPad, Inc., La Jolla, CA, USA).

human IP6K2 = target: T2, human IP6K2 (Homo sapiens, UniProt Q9UHH9); experiment: IP6K2 inhibition assay (ADP Glo kinase assay); assay type: biochemical; conditions: purified human IP6K2, 10 μM IP6, 10 μM ATP, 8-dose, triplicate, mean ± SEM
T2 construct: made in house; host or cells: Sf9 insect cells (baculovirus)
T2 sequence (Q9UHH9 1-426): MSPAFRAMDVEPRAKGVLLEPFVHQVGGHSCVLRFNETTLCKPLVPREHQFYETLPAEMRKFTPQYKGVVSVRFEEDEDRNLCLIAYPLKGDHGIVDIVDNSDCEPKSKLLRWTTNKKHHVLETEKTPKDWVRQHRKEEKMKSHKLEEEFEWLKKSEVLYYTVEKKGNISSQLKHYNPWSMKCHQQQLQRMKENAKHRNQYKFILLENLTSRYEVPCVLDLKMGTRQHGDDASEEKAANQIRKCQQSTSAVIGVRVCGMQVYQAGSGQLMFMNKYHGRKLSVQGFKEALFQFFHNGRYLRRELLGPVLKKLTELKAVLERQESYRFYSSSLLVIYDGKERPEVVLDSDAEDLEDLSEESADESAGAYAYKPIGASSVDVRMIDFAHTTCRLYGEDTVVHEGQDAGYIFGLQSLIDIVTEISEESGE
Protocol: Full-length human IP6K2 cDNA was subcloned into pFASTBAC1 plasmid (Gibco) with an N-terminal FLAG epitope sequence, and baculovirus was generated according to the manufacturer’s instructions. Sf9 insect cells were infected with baculovirus and incubated for 72 h. The cells were resuspended in lysis buffer [20 mM Tris–HCl (pH 7.9), 500 mM NaCl, 4 mM MgCl2, 0.4 mM EDTA, 2 mM DTT, 20% glycerol, 1 mM PMSF, and protease inhibitor cocktail (Roche)] and then disrupted with a Dounce homogeniser (pestle A, 3 series of 10 strokes with 10 min interval).
IP6K2 activity was measured using ADP Glo assay kit (Promega). All kinase assays were performed in low volume 384-well white plates (784075, Greiner-bioone) with a final volume of 5 μL. The reaction buffer contained 2 ng Flag-hIP6K2, 10 μM IP6, and 10 μM ATP in kinase buffer (50 mM Tris, 10 mM MgCl2, 2.5 mM DTT, 0.02% Triton-X-100, pH 6.8)[26]. For dose-dependent inhibition assay, 8 serial 2-fold dilutions of test compounds were prepared in DMSO. The final DMSO concentration was 5% in each reaction. The test compounds (5X, 25% DMSO in 1X kinase buffer) were dispensed to each well, and 2.5 X IP6K2 in kinase buffer were added. After 15 min incubation at room temperature, 2.5 X concentrations of IP6 and ATP were added to the plate. The reaction plate was incubated in a 37 °C incubator for 30 min. Next, the reactions were quenched with 5 μL of ADP Glo reagent for 40 min to deplete the remaining ATP. To convert the remaining ADP to ATP, 10 μl of detection reagent were added and incubated for 30–60 min. The luminescence of the final reactants was measured using the Mithras LB940 plate reader from Berthold. Samples were run in triplicate and the activity (%) was calculated using the following equations; Activity (%) = 100 × (μexperimental–μnegative)/(μpositive–μnegative). Negative control was DSMO-treated reaction. IC50 value was estimated using a logistic regression model with R package.

[2] = tested on: IP7 synthesis in HCT116 cells; experiment: Quantification of intracellular inositol phosphates by HPLC in radiolabeled HCT116; assay type: cell-based, human; conditions: HCT116, 50 μM, 4 h
Protocol: For HPLC analysis, 2 × 10^5 cells/60 mm dish of HCT116 were treated with 75 μCi [^3H] myo-inositol (NET1177001MC, PerkinElmer). After 3 days, soluble inositol polyphosphates from HCT116 (human colorectal cancer cell line) were extracted and analysed as previously described. Intracellular inositol phosphates were extracted with acid extraction buffer (1 M HClO4, 3 mM EDTA, and 0.1 mg/ml1 IP6), and neutralised with neutralisation buffer (1 M K2CO3 and 3 mM EDTA). The lysates were centrifuged for 10 min, and the soluble fraction was resolved by HPLC as described earlier. The lipid pellet was lysed with 0.1% Triton X-100 in NaOH overnight. Each fraction was mixed with Ultima-Flo AP liquid scintillation cocktail (6013599, PerkinElmer), and radioactivity was counted in a scintillation counter. Quantity of inositol phosphates was presented as total counts/min (CPM) normalised by total lipid contents.

[3] = tested on: Akt phosphorylation at Thr308 in HCT116 cells; experiment: AKT activation in HCT116 cells (Western blot); assay type: cell-based, human; conditions: HCT116, 50 μM, 4 h, pAkt/Akt by Western blot
Protocol: Total proteins were quantified by bicinchoninic acid assay (23225, Thermo Fisher Scientific). Total 20 μg proteins were resolved in 8% SDS–PAGE, and then Akt phosphorylation was probed with primary antibodies against, phospho–Akt (Thr308) (4056) and Akt (9272) (Cell Signalling) and HRP-conjugated secondary antibody. The relative band intensities of Akt phosphorylation to total Akt were quantified with Image J software.

| Compound | Relative 3A4 inhibition (% of TNP) [1] | Kd (purified CYP3A4) [µM] | IC50 (human IP6K2) | melting point [°C] | CYP3A4 Kd (spectral dissociation constant) (purified CYP3A4) | IP4, IP5, and IP6 levels [2] | cellular IP7 synthesis (effect in words) [2] | increase in Akt phosphorylation at Thr308 compared to vehicle treatment [3] | decrease of cellular IP7 synthesis compared to DMSO [2] [%] |
| --- | --- | --- | --- | --- | --- | --- | --- | --- | --- |
| O=[N+]([O-])c1ccc(CNc2nc(NCc3cccnc3)c3nc[nH]c3n2)cc1 [Compound 13, N^2-(4-nitrobenzyl)-N^6-(pyridin-3-ylmethyl)-9H-purine-2,6-diamine] | 126 ± 1 % of TNP | 2 ± 0.5 | 3.3 ± 0.8 µM | 251 | – | – | – | – | – |
| CS(=O)(=O)c1ccc(CNc2nc(NCc3ccc(F)cc3)nc3[nH]cnc23)cc1 [Compound 7, N^2-(4-fluorobenzyl)-N^6-(4-(methylsulfonyl)benzyl)-9H-purine-2,6-diamine] | – | 28.8 ± 2.7 | 7.3 ± 0.5 µM | – | – | – | – | – | – |
| FC(F)(F)c1cccc(CNc2nc(NCc3nc4ccccc4[nH]3)c3nc[nH]c3n2)c1 [Compound 17, N^6-((1H-benzo[d]imidazol-2-yl)methyl)-N^2-(3-(trifluoromethyl)benzyl)-9H-purine-2,6-diamine] | 116 ± 3 % of TNP | 7.9 ± 0.8 | 12.6 ± 0.4 µM | 289 | – | – | – | – | – |
| CS(=O)(=O)c1ccc(CNc2nc(NCc3ccc(Cl)cc3)nc3[nH]cnc23)cc1 [Compound 8, N^2-(4-chlorobenzyl)-N^6-(4-(methylsulfonyl)benzyl)-9H-purine-2,6-diamine] | – | 14.4 ± 3.3 | – | – | – | – | – | – | – |
| Fc1ccc(CNc2nc(NCc3nc4ccccc4[nH]3)c3nc[nH]c3n2)cc1 [Compound 18, N^6-((1H-benzo[d]imidazol-2-yl)methyl)-N^2-(4-fluorobenzyl)-9H-purine-2,6-diamine] | 120 ± 1 % of TNP | 11.1 ± 1 | 13.2 ± 0.4 µM | 287 | – | – | – | – | – |
| Fc1ccc(CNc2nc(NCc3cccnc3)c3nc[nH]c3n2)cc1 [Compound 11, N^2-(4-fluorobenzyl)-N^6-(pyridin-3-ylmethyl)-9H-purine-2,6-diamine] | – | 3 ± 0.6 | 5.9 ± 0.2 µM | – | – | – | – | – | – |
| FC(F)(F)c1cccc(CNc2nc(NCc3cccnc3)c3nc[nH]c3n2)c1 [Compound 10, N^6-(pyridin-3-ylmethyl)-N^2-(3-(trifluoromethyl)benzyl)-9H-purine-2,6-diamine] | – | 1.4 ± 0.5 | 5.3 ± 0.3 µM | – | – | – | – | – | – |
| Fc1ccc(CNc2nc(NCc3ncc[nH]3)c3nc[nH]c3n2)cc1 [Compound 15, N^6-((1H-imidazol-2-yl)methyl)-N^2-(4-fluorobenzyl)-9H-purine-2,6-diamine] | – | – | 24.7 ± 0.2 µM | – | did not display any binding spectral change; also recorded: without binding to CYP3A4; also recorded: No binding^d | without notable changes | reduced cellular IP7 synthesis | more than 1.5 fold | – |
| O=[N+]([O-])c1ccc(CNc2nc(NCc3nc4ccccc4[nH]3)c3nc[nH]c3n2)cc1 [Compound 20, N^6-((1H-benzo[d]imidazol-2-yl)methyl)-N^2-(4-nitrobenzyl)-9H-purine-2,6-diamine] | 65.7 ± 1.97 % of TNP | – | 21.8 ± 0.3 µM | 153 | did not show any spectral dissociation constant value; also recorded: without binding to CYP3A4; also recorded: No binding^d | without notable changes | reduced cellular IP7 synthesis | more than 1.5 fold | – |

Continued, in another order:

| Relative 3A4 inhibition (% of TNP) [1] | Kd (purified CYP3A4) [µM] | IC50 (human IP6K2) | melting point [°C] | Compound | CYP3A4 Kd (spectral dissociation constant) (purified CYP3A4) | IP4, IP5, and IP6 levels [2] | cellular IP7 synthesis (effect in words) [2] | increase in Akt phosphorylation at Thr308 compared to vehicle treatment [3] | decrease of cellular IP7 synthesis compared to DMSO [2] [%] |
| --- | --- | --- | --- | --- | --- | --- | --- | --- | --- |
| – | 40.5 ± 8 | 19.9 ± 0.1 µM | – | Clc1ccc(CNc2nc(NCc3ncc[nH]3)c3nc[nH]c3n2)cc1 [Compound 16, N^6-((1H-imidazol-2-yl)methyl)-N^2-(4-chlorobenzyl)-9H-purine-2,6-diamine] | – | – | – | – | – |
| – | 24.8 ± 4.3 | 4.6 ± 0.2 µM | – | CS(=O)(=O)c1ccc(CNc2nc(NCc3cccc(C(F)(F)F)c3)nc3[nH]cnc23)cc1 [Compound 6, N^6-(4-(methylsulfonyl)benzyl)-N^2-(3-(trifluoromethyl)benzyl)-9H-purine-2,6-diamine] | – | – | – | – | – |
| 120 ± 0.66 % of TNP | 16.9 ± 3.7 | 19.3 ± 0.27 µM | 160 | Clc1ccc(CNc2nc(NCc3nc4ccccc4[nH]3)c3nc[nH]c3n2)cc1 [Compound 19, N^6-((1H-benzo[d]imidazol-2-yl)methyl)-N^2-(4-chlorobenzyl)-9H-purine-2,6-diamine] | – | – | – | – | – |
| – | 1.8 ± 0.6 | – | – | Clc1ccc(CNc2nc(NCc3cccnc3)c3nc[nH]c3n2)cc1 [Compound 12, N^2-(4-chlorobenzyl)-N^6-(pyridin-3-ylmethyl)-9H-purine-2,6-diamine] | – | – | – | – | – |
| – | – | 16 µM and 16.8 µM | – | CS(=O)(=O)c1ccc(CNc2nc(NCc3ccc([N+](=O)[O-])cc3)nc3[nH]cnc23)cc1 [Compound 9, N^6-(4-(methylsulfonyl)benzyl)-N^2-(4-nitrobenzyl)-9H-purine-2,6-diamine] | did not show any binding spectral change; also recorded: without binding to CYP3A4; also recorded: No binding^d | without notable changes | reduced cellular IP7 synthesis | more than 1.5 fold | ~44 |
| – | 22.2 ± 4.5 | 34.7 ± 0.7 µM | – | FC(F)(F)c1cccc(CNc2nc(NCc3ncc[nH]3)c3nc[nH]c3n2)c1 [Compound 14, N^6-((1H-imidazol-2-yl)methyl)-N^2-(3-(trifluoromethyl)benzyl)-9H-purine-2,6-diamine] | – | – | – | – | – |

Reference: paper PMC8667942 (Journal of Enzyme Inhibition and Medicinal Chemistry, 2021)
